Experimental data reported in patent publication US20160376286A1, “Pyrimidin-4-one derivatives and their use in the tratement, amelioration or prevention of a viral disease” (priority 2011, published 2016).
Where two headings read alike, the source gives them in different places.

System: influenza A virus A/Aichi/2/68 (H3N2)
Assay: Cytopathic effect (CPE) assay H3N2 in MDCK cells
Format: cell-based, influenza A virus (A/Aichi/2/68 (H3N2)); MDCK cells
Conditions: for inhibition at 50 µM: Influenza A virus, H3N2, MDCK, read-out: CPE H3N2 reduction (%)
Description: A possible measure of the […] antiviral activity of the compounds having the formula I or II is the CPE assay disclosed herein. […] In this connection, the reduction in the virus-mediated cytopathic effect (CPE) upon treatment with the compounds was calculated as follows: The cell viability of infected-treated and uninfected-treated cells was determined using an ATP-based cell viability assay (Promega). The response in relative luminescent units (RLU) of infected-untreated samples was subtracted from the response (RLU) of the infected-treated samples and then normalized to the viability of the corresponding uninfected sample resulting in % CPE reduction.
The influenza A virus (IAV) was obtained from American Tissue Culture Collection (A/Aichi/2/68 (H3N2); VR-547). Virus stocks were prepared by propagation of virus on Mardin-Darby canine kidney (MDCK; ATCC CCL-34) cells and infectious titres of virus stocks were determined by the 50% tissue culture infective dose (TCID50) analysis as described in Reed, L. J., and H. Muench. 1938, Am. J. Hyg. 27:493-497.
MDCK cells were seeded in 96-well plates at 2×10^4 cells/well using DMEM/Ham's F-12 (1:1) medium containing 10% foetal bovine serum (FBS), 2 mM L-glutamine and 1% antibiotics (all from PAA). Until infection the cells were incubated for 5 hrs at 37° C., 5.0% CO2 to form a -80% confluent monolayer on the bottom of the well. Each test compound was dissolved in DMSO and generally tested at 25 μM and 250 μM. In those cases where the compounds were not soluble at that concentration they were tested at the highest soluble concentration. The compounds were diluted in infection medium (DMEM/Ham's F-12 (1:1) containing 5 μg/ml trypsin, and 1% antibiotics) for a final plate well DMSO concentration of 1%. The virus stock was diluted in infection medium (DMEM/Ham's F-12 (1:1) containing 5 μg/m1Trypsin, 1% DMSO, and 1% antibiotics) to a theoretical multiplicity of infection (M01) of 0.05.
After removal of the culture medium and one washing step with PBS, virus and compound were added together to the cells. In the wells used for cytotoxicity determination (i.e. in the absence of viral infection), no virus suspension was added. Instead, infection medium was added. Each treatment was conducted in two replicates. After incubation at 37° C., 5% CO2 for 48 hrs, each well was observed microscopically for apparent cytotoxicity, precipitate formation, or other notable abnormalities. Then, cell viability was determined using
CellTiter-Glo luminescent cell viability assay (Promega). The supernatant was removed carefully and 65 μl of the reconstituted reagent were added to each well and incubated with gentle shaking for 15 min at room temperature. Then, 60 μl of the solution was transferred to an opaque plate and luminescence (RLU) was measured using Synergy HT plate reader (Biotek).
Relative cell viability values of uninfected-treated versus uninfected-untreated cells were used to evaluate cytotoxicity of the compounds. Substances with a relative viability below 80% at the tested concentration were regarded as cytotoxic and retested at lower concentrations.
Reduction in the virus-mediated cytopathic effect (CPE) upon treatment with the compounds was calculated as follows: The response (RLU) of infected-untreated samples was subtracted from the response (RLU) of the infected-treated samples and then normalized to the viability of the corresponding uninfected sample resulting in % CPE reduction.

Structure (SMILES): Cl.O=C(NO)c1cc(N2CCCCC2)ccn1
- CPE H3N2 reduction (%) (activity conc 5): −4.1%

Structure (SMILES): CCONC(=O)c1ccc(-c2cccc(CN(C)CCCc3ccccc3)c2)cn1.Cl
- CPE H3N2 reduction (%) (activity conc 20): 1.6%

Structure (SMILES): CCONC(=O)c1cc(NCc2cccc(OCc3ccccc3)c2)ccn1.Cl
- CPE H3N2 reduction (%) (activity conc 1): 1.2%

Structure (SMILES): O=C(c1ccc(N2CCCC2)cn1)N(Cc1ccccc1)OCc1ccccc1
- CPE H3N2 reduction (%) (activity conc 5): −2.7%

Structure (SMILES): O=C(c1cc2ccccc2cn1)N(Cc1ccccc1)OCc1ccccc1
- CPE H3N2 reduction (%) (activity conc 5): 1.3%

Structure (SMILES): Cc1cccc(-c2ccc(C(=O)N(O)Cc3ccccc3)nc2)c1
- CPE H3N2 reduction (%) (activity conc 10): 15.5%

Structure (SMILES): O=C(NOCc1ccccc1)c1cc2ccccc2cn1
- CPE H3N2 reduction (%) (activity conc 5): −1.5%

Structure (SMILES): O=C(c1cc(N2CCCCC2)ccn1)N(O)CCCc1ccccc1
- CPE H3N2 reduction (%) (activity conc 2): 7.7%

Structure (SMILES): CC(C)c1cccc(-c2ccc(C(=O)NO)nc2)c1
- CPE H3N2 reduction (%) (activity conc 2): −2.1%

Structure (SMILES): O=C(c1cc2ccccc2cn1)N(O)CCCc1ccccc1
- CPE H3N2 reduction (%) (activity conc 2): 4.4%

Structure (SMILES): CC(C)c1cccc(-c2ccc(C(=O)N(O)CCc3ccccc3)nc2)c1
- CPE H3N2 reduction (%) (activity conc 2): 2.1%

Structure (SMILES): O=C(c1ccc(N2CCCCC2)cn1)N(O)Cc1ccccc1
- CPE H3N2 reduction (%) (activity conc 5): −3.4%

Structure (SMILES): O=C(c1cc(-c2ccccc2)ccn1)N(O)Cc1ccccc1
- CPE H3N2 reduction (%) (activity conc 10): −9.3%

Structure (SMILES): CN(Cc1ccccc1)c1ccnc(C(=O)N(O)Cc2ccccc2)c1
- CPE H3N2 reduction (%) (activity conc 5): 3.8%

Structure (SMILES): O=C(c1ccc(-c2ccccc2)cn1)N(O)Cc1ccccc1
- CPE H3N2 reduction (%) (activity conc 12): 13.4%

Structure (SMILES): O=C(NO)c1ccc(-c2ccccc2)cn1
- CPE H3N2 reduction (%) (activity conc 12): 21.7%

Structure (SMILES): O=C(NO)c1cc(-c2ccc(Cl)cc2)ccn1
- CPE H3N2 reduction (%) (activity conc 5): 26.6%

Structure (SMILES): O=C(c1cc(-c2ccc(Cl)cc2)ccn1)N(O)Cc1ccccc1
- CPE H3N2 reduction (%) (activity conc 2): −6.7%

Structure (SMILES): O=C(c1cc(-c2ccc(Cl)c(Cl)c2)ccn1)N(O)Cc1ccccc1
- CPE H3N2 reduction (%) (activity conc 5): 8.1%

Structure (SMILES): NC(=O)c1cccc(-c2ccnc(C(=O)N(O)Cc3ccccc3)c2)c1
- CPE H3N2 reduction (%) (activity conc 5): −2.7%

Structure (SMILES): O=C(c1cc(-c2ccccc2)ccn1)N(O)Cc1ccc(F)cc1
- CPE H3N2 reduction (%) (activity conc 1): −3.2%

Structure (SMILES): CC(C)(C)OC(=O)N1CC=C(c2ccnc(C(=O)N(O)Cc3ccccc3)c2)CC1
- CPE H3N2 reduction (%) (activity conc 5): 1.2%

Structure (SMILES): NC(=O)c1ccc(-c2ccnc(C(=O)N(O)Cc3ccccc3)c2)cc1
- CPE H3N2 reduction (%) (activity conc 5): −2.5%

Structure (SMILES): CN(C)S(=O)(=O)c1cccc(-c2ccnc(C(=O)N(O)Cc3ccccc3)c2)c1
- CPE H3N2 reduction (%) (activity conc 5): −1.8%

Structure (SMILES): O=C(c1cc(-c2cccc(CO)c2)ccn1)N(O)Cc1ccccc1
- CPE H3N2 reduction (%) (activity conc 5): 7.7%

Structure (SMILES): CNC(=O)c1cccc(-c2ccnc(C(=O)N(O)Cc3ccccc3)c2)c1
- CPE H3N2 reduction (%) (activity conc 5): −7.5%

Structure (SMILES): CN(c1ccnc(C(=O)NO)c1)S(=O)(=O)Cc1ccccc1
- CPE H3N2 reduction (%) (activity conc 5): −1.7%

Structure (SMILES): COC1=CC=C(c2ccnc(C(=O)N(O)Cc3ccccc3)c2)CC1
- CPE H3N2 reduction (%) (activity conc 2): −2.5%

Structure (SMILES): CC(C)(C)OC(=O)N1CCC(c2ccnc(C(=O)N(O)Cc3ccccc3)c2)CC1
- CPE H3N2 reduction (%) (activity conc 20): 31.3%

Structure (SMILES): CC(C)(C)OC(=O)N1C=C(c2ccnc(C(=O)N(O)Cc3ccccc3)c2)CCC1
- CPE H3N2 reduction (%) (activity conc 2): 3.9%

Structure (SMILES): CC(C)(C)OC(=O)N1CCC=C(c2ccnc(C(=O)N(O)Cc3ccccc3)c2)C1
- CPE H3N2 reduction (%) (activity conc 5): 10.2%

Structure (SMILES): O=C(c1cc(C2=CCCCC2)ccn1)N(O)Cc1ccccc1
- CPE H3N2 reduction (%) (activity conc 1): 3.4%

Structure (SMILES): Cl.O=C(NO)c1cc(NS(=O)(=O)Cc2cc(Cl)cc(Cl)c2)ccn1
- CPE H3N2 reduction (%) (activity conc 20): 28.9%

Structure (SMILES): Cl.O=C(c1cc(N2CCC(F)(F)C2)ccn1)N(O)Cc1ccccc1
- CPE H3N2 reduction (%) (activity conc 20): 4.6%

Structure (SMILES): CC(C)(C)OC(=O)N1C2C=C(c3ccnc(C(=O)N(O)Cc4ccccc4)c3)CC1CC2 (stereo not drawn)
- CPE H3N2 reduction (%) (activity conc 2): −5.3%

Structure (SMILES): O=C(NO)c1cc(NS(=O)(=O)Cc2cc(Cl)cc(Cl)c2)ccn1
- inhibition at 50 µM (activity conc 50 (μM)): 9.3%

Structure (SMILES): O=C(NO)c1cc(NS(=O)(=O)Cc2cccc(C(F)(F)F)c2)ccn1
- inhibition at 50 µM (activity conc 50 (μM)): -5.8%

Structure (SMILES): O=C(NO)c1cc(NS(=O)(=O)Cc2ccccc2Cl)ccn1
- inhibition at 50 µM (activity conc 50 (μM)): -1.5%

Structure (SMILES): O=C(c1cc(N2CCCCC2)cc[n+]1[O-])N(O)Cc1ccccc1
- CPE H3N2 reduction (%) (activity conc 5): −1.83%

Structure (SMILES): O=C(NO)c1cc(NS(=O)(=O)Cc2ccc(Cl)cc2)ccn1
- inhibition at 50 µM (activity conc 50 (μM)): -3.88%

Structure (SMILES): O=C(NO)c1cc(NS(=O)(=O)Cc2cccc(Cl)c2)ccn1
- inhibition at 50 µM: 60.1%

Structure (SMILES): O=C(NO)c1cc(NS(=O)(=O)Cc2cccc(Br)c2)ccn1
- inhibition at 50 µM (activity conc 50 (μM)): 2.29%
